Entries after “also recorded” stand apart in the source; their conditions may differ.
Tests used:
[1] = test system: transcriptional condensates at SMAD7; experiment: IR-GFP and SMAD7 intronic RNA FISH colocalization in HepG2 cells; type: cell-based, human
[2] = test system: IR puncta; experiment: Immunofluorescence for IR in human primary adipocytes; type: cell-based; conditions: for IR incorporation into puncta: 3 nM insulin 5 minutes
Experimental: Primary pre-adipocytes from (ATCC, PCS-210-010) were cultured in Fibroblast Growth Kit-Low Serum (ATCC PCS-201-041), as per manufacturer's instructions. Cells for experiments were dissociated and plated at 18,000 cells/cm2. Two days later pre-adipocytes were differentiated in adipocyte differentiation media (ATCC PCS-500-050), as per manufacturer's instructions. Briefly, cells were washed and medium was replaced with adipocyte differentiation initiation medium. After 48 hours, half the medium was replaced. At day 4, medium was changed to adipocyte differentiation maintenance medium, and replaced every three days. At day 12, cells were rinsed and incubated in DMEM (Thermo Fisher, 11885084) with 0.1 or 3 nM of insulin for 5 days, replacing medium every other day. In the last 24 hours, 12.5 μM metformin was added. On day 17, cells were prepared for the assays by rinsing, and 30 minutes of washing. Afterwards, for imaging, cells were exposed to 3 nM insulin for 5 minutes, rinsed with PBS and fixed in 4% PFA for 15 minutes at room temperature. For pAKT ELISAs cells were exposed to 3 nM insulin for 15 minutes and harvested in cell lysis buffer (Cell Signaling Technology, #9803) with phosphatase inhibitor (Thermo Fisher Scientific, 78442).
For adipocytes, following differentiation, cells were cultured with EMEM for 2 days and with EMEM containing either physiological (0.1 nM) or pathological (3 nM) concentrations of insulin for 2 days. Cells were then cultured with EMEM containing either physiological (0.1 nM) or pathological (3 nM) of insulin or with pathological (3 nM) concentrations of insulin and 12.5 μM of metformin for 1 day. Cells were then washed with EMEM and acutely stimulated with or without 3 nM insulin for 5 minutes prior to cell collection for immunofluorescence or ELISA.
HepG2 cells, human liver spheroids, human primary adipocytes and human tissue liver sections were fixed in 4% PFA (VWR, BT140770-10X10) in PBS (Life Technologies, AM9625) for 10 minutes at room temperature. […]

[3] = test system: phosphorylated IRS1 (pIRS1); experiment: Imaging of phosphorylated IRS1 in IR condensates in HepG2 cells; type: cell-based, human
Experimental: HepG2 cells, human liver spheroids, human primary adipocytes and human tissue liver sections were fixed in 4% PFA (VWR, BT140770-10X10) in PBS (Life Technologies, AM9625) for 10 minutes at room temperature. Cells were washed three times for 5 minutes in PBS, permeabilized with 0.5% TritonX100 (Sigma Aldrich, X100) in PBS, washed three times for 5 minutes in PBS, and then blocked with 4% IgG-free BSA (VWR, 102643-516) for 15-60 minutes at room temperature. Afterwards, the cells were incubated with 1:500 or 1:1000 primary antibody (specific antibodies listed below) in 4% IgG-free BSA in PBS at 4° C. overnight. […]
To quantify pIRS1 fluorescent signal in IR puncta/condensates manually, Airyscan images were opened on Fiji as composite images. A circle or an oval was drawn around IR puncta using the oval selection tool and the average fluorescence intensity of pIRS1 in the circle or oval (=in the puncta/condensates) was determined using the measure tool on Fiji.
To quantify pIRS1 fluorescent signal in IR puncta/condensates computationally using Fiji, 3D object counter tool was used. […] 3D object counter tool then determined the intensity pIRS1 channel in the identified IR puncta. pIRS1 signal intensity was then background subtracted by a threshold determined by averaging the background intensity in a rectangular region outside of the cells.

[4] = test system: reactive oxygen species (ROS); experiment: Quantification of ROS using a ROS-sensitive dye in HepG2 cells; type: cell-based, human
Experimental: Cells expressing endogenous IR tagged with GFP were treated with ROS dye (Abcam, ab186029) following the manufacturer's instructions. […] Cells were incubated at 37° C. with 5% CO2 in a humidified incubator for 30 min. Cells were imaged at 37° C. using the LSM880 Microscope with Airyscan detector with 63×objective and Zen Black software (ZEISS) at the W.M. Keck Microscopy Facility, MIT. Images were then processed using Fiji/ImageJ v2.1.0/153c. Quantification of the ROS dye fluorescence intensity per cell was performed using Fiji. Using the polygon selection tool on Fiji/ImageJ v2.1.0/153c, a polygon was drawn around a cell outline, which was identified by looking at the IR-GFP channel. The average ROS dye fluorescence intensity in the polygon (=in the cell) was determined using the measure tool on Fiji/ImageJ v2.1.0/153c. […] Cells were incubated at 37° C. with 5% CO2 in a humidified incubator for 30 minutes. Cells were imaged at 37° C. using the LSM880 Microscope with Airyscan detector with 63× objective and Zen Black software (ZEISS) at the W.M. Keck Microscopy Facility, MIT. Images were then processed using Fiji/ImageJ v2.1.0/153c. Quantification of the ROS dye fluorescence intensity per cell was performed using Fiji. […] The average ROS dye fluorescence intensity in the polygon (=in the cell) was determined using the measure tool on Fiji/ImageJ v2.1.0/153c.

insulin: insulin (Sigma Aldrich, I9278-5ML) used for acute stimulation and chronic physiological or pathological exposure
levels of IR in transcriptional condensates at SMAD7 ([1]; insulin resistant cells, acute insulin stimulation): did not increase the levels of IR in transcriptional condensates; also recorded: did not cause increased levels of IR in transcriptional condensates
colocalization of IR-containing condensates with SMAD7 nascent RNA ([1]; insulin sensitive cells, 0 nM versus 3 nM insulin): increased colocalization
IR incorporation into puncta ([2]; insulin-resistant adipocytes): less able to promote further IR incorporation into puncta
IR incorporation into puncta ([2]; insulin-sensitive adipocytes): promoted further IR incorporation into these puncta
intensity of pIRS1 at IR condensates ([3]; insulin-sensitive HepG2 cells, 3 nM insulin 5 min (FIG. 17F)): increased

CN(C)C(=N)N=C(N)N [metformin, reference compound]
IR levels in SMAD7 transcriptional condensates ([1]; metformin-treated insulin resistant cells, 3 nM insulin 5 min (FIG. 5D)): increased
ROS levels (ROS-sensitive dye) ([4]; insulin resistant HepG2 cells, 12.5 μM metformin): reduced ROS levels to those found in insulin sensitive cells; also recorded: reduced ROS levels to those found in insulin-sensitive cells
IR incorporation into puncta (IR signal) ([2]; insulin-resistant adipocytes, 12.5 μM metformin 1 day, 3 nM insulin 5 min): reversed
levels of phosphorylated IRS1 in IR-containing condensates ([3]; insulin-resistant cells + metformin, 3 nM insulin 5 min (FIG. 18C)): partially rescued

TNFα
production of ROS ([4]; HepG2 cells (FIG. 27C), also refs 19,77-79): excessive production of ROS

— patent US20250186379A1, “METHODS AND AGENTS FOR DECREASING INSULIN RESISTANCE” (Whitehead Institute for Biomedical Research, priority 2021, published 2025)
